Assay results: patent US20080020932A1, “Method for Combating Weeds” (Bayer Cropscience AG, priority 2004, published 2008)

System: Apera spica-venti
Experiment: Postemergence field trials in winter wheat: herbicidal activity
Format: in vivo
Settings: field trials carried out
Procedure: The compound of the formula (I) was tested under field conditions in Winter wheat in Germany and Poland against the economically significant weed Apera spica-venti. The plot trials were instituted on cultivated land used agriculturally, and the conditions of cultivation and climate can be regarded as being representative over the period under investigation. Areas with a particularly high weed population were selected preferentially.
The active ingredient was applied postemergence (spring) across the area by spraying with a medium droplet size. An appropriate preparation of active ingredient was produced by formulating the active ingredient as a 10 WP (10% w/w water-dispersible powder), mixed with the safener mefenpyr-diethyl as a 15 WG (15% w/w water-dispersible granules) and with alkyl ether sulfates as an additive, and applied with customary amounts of water.
For the assessment of crop tolerance, instances of plant growth inhibition or lightening of the leaf area were rated in % damage in comparison to the development of the untreated control, 1 to 7 weeks after treatment. The herbicidal activity was assessed at a number of times after treatment, based on the development of weeds, as a % reduction in comparison to the untreated control. For these purposes: • 0%=no damage to crop or no herbicidal action; • 100%=total destruction of the crop or of the weeds, respectively.

Structure (SMILES): COC(=O)c1csc(C)c1S(=O)(=O)NC(=O)n1nc(OC)n(C)c1=O [compound of the formula (I), 5-methoxy-4-methyl-2-[(4-methoxycarbonyl-2-methylthien-3-yl)sulfonylaminocarbonyl]-2,4-dihydro-3H-1,2,4-triazol-3-one]
- control of the annual varieties of Apera spica-venti in cereals (in words): particularly effective
